The target in one experiment is BRK (Homo sapiens, UniProt Q13882). Put plainly: Kinase panel (mobility shift). In kind it is biochemical. In a few lines:
(§1)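 Compound at 5 um + kinase + fluor-labeled substrate, standardized mix; rxn stopped; electrophoretic separation of product/substrate on chip; activity = product vs substrate peak fluorescence. Bins A ≥95%, B 90-94%, C 80-89%.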

The target in the next experiment is T1, AXL (Homo sapiens, UniProt P30530).
T1 sequence (P30530 26-894): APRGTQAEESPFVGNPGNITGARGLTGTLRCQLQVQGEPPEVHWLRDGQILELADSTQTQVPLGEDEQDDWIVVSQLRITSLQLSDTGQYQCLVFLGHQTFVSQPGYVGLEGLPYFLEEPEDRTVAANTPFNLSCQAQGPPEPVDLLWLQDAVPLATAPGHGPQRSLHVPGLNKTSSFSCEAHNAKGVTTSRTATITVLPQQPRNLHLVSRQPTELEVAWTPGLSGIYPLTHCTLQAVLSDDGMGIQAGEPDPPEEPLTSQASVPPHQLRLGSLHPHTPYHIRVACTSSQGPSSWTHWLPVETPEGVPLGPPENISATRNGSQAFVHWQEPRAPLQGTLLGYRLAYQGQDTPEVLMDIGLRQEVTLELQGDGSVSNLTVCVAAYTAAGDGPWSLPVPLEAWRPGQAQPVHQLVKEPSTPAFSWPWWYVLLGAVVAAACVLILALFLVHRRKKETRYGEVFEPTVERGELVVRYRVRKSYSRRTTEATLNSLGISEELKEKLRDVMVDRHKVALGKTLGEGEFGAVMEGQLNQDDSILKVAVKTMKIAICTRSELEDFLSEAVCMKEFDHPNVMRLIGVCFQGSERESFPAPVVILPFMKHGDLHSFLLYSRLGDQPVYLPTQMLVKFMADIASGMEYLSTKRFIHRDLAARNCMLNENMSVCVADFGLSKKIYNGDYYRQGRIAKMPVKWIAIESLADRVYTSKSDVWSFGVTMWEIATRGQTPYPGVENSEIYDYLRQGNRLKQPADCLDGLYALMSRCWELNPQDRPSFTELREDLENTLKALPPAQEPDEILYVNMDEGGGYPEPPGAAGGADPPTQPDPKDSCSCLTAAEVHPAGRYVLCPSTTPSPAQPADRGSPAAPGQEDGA
Description: Kinase panel (mobility shift). It counts as biochemical. In a few lines:
as §1

What is called inhibition is the share of the control response that was lost under treatment.

Bounds are passed on as bounds.

Sequence of BRK (Q13882 whole entry, species assumed): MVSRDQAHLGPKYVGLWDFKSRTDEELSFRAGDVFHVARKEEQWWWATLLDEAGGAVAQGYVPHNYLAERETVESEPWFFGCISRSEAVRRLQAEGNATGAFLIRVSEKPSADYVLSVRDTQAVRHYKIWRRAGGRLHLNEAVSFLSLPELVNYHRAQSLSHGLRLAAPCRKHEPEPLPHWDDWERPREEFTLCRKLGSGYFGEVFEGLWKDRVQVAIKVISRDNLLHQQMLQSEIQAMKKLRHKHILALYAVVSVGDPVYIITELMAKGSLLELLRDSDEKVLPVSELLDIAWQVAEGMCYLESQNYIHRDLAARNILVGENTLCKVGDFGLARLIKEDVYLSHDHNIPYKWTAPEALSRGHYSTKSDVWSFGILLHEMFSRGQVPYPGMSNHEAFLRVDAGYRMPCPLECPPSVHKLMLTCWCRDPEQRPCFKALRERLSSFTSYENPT

Consider `CSc1nc(C(=O)Nc2ccc(Oc3ccnc(N)c3Cl)c(F)c2)c(-c2ccc(F)cc2)o1` [Compound 1], for which the figures for the inhibition at 5 µM at BRK and at AXL were 50 to 79% and < 50%, respectively.
The corresponding values for `CSc1nc(C(=O)Nc2ccc(Oc3cc4cnn(C)c4cc3Br)c(F)c2)c(-c2ccc(F)cc2)o1` [Compound 2] are < 50% and < 50%.
As to `CNC(=O)c1cc(Oc2ccc(NC(=O)c3nc(SC)oc3-c3ccc(F)cc3Cl)cc2)ccn1` [Compound 3], the inhibition at 5 µM was in the range of 90 to 94% at BRK and 80 to 89% at AXL.
The corresponding values for `CNC(=O)c1cc(Oc2ccc(NC(=O)c3nc(SC)oc3-c3ccc(F)c(F)c3)cc2)ccn1` [Compound 4] are 50 to 79% and < 50%.
The corresponding values for `CNC(=O)c1cc(Oc2ccc(NC(=O)c3nc(SC)oc3-c3ccc(Cl)s3)cc2)ccn1` [Compound 5] are 50 to 79% and < 50%.
Turning to `CNC(=O)c1cc(Oc2ccc(NC(=O)c3nc(SC)oc3-c3ccc(F)cc3F)cc2)ccn1` [Compound 6], the inhibition at 5 µM on BRK was ≥ 95%; on AXL it was 80 to 89%.
In the case of `CNC(=O)c1cc(Oc2ccc(NC(=O)c3nc(SC)oc3-c3ccc(OC)cc3)cc2)ccn1` [Compound 7], the inhibition at 5 µM at BRK and on AXL was < 50% throughout.
Take `CSc1nc(C(=O)Nc2ccc(Oc3ccnc(-c4cnn(C)c4)c3)c(F)c2)c(-c2ccc(F)cc2)o1` [Compound 11]: the inhibition at 5 µM was ≥ 95% on BRK and 90 to 94% at AXL.
In the case of `CNC(=O)c1cc(Oc2ccc(NC(=O)c3nc(SC)oc3-c3ccc(F)cc3F)cc2F)ccn1` [Compound 12], the inhibition at 5 µM on BRK is ≥ 95%; on AXL it was 50 to 79%.
The matching figures for `CNC(=O)c1cc(Oc2ccc(NC(=O)c3nc(S(C)(=O)=O)sc3-c3ccc(F)cc3)cc2F)ccn1` [Compound 13]: 50 to 79% and 80 to 89%.
`CNC(=O)c1cc(Oc2ccc(NC(=O)c3nc(NC)oc3-c3ccc(F)cc3)cc2F)ccn1` [Compound 14]: the inhibition at 5 µM at BRK was 80 to 89%; on AXL, < 50%.
Take `CNC(=O)c1cc(Oc2ccc(NC(=O)c3nc(OC)oc3-c3ccc(F)cc3)cc2F)ccn1` [Compound 15]: the inhibition at 5 µM at BRK and on AXL was 50 to 79% in each case.
For the compound `CNC(=O)c1cc(Oc2ccc(NC(=O)c3nc(SC)oc3-c3ccc(F)s3)cc2F)ccn1` [Compound 16], the inhibition at 5 µM at BRK and at AXL was < 50% in each case.
Regarding `CNC(=O)c1cc(Oc2ccc(NC(=O)c3nc(NC)oc3-c3ccc(F)s3)cc2F)ccn1` [Compound 17], the inhibition at 5 µM at BRK and at AXL was < 50% each time.
For the compound `CNC(=O)c1cc(Oc2c(F)cc(NC(=O)c3nc(NC)sc3-c3ccc(F)cc3)cc2F)ccn1` [Compound 19], the figures for the inhibition at 5 µM on BRK and on AXL were 50 to 79% and < 50%, respectively.
The corresponding values for `CNC(=O)c1cc(Oc2ccc(NC(=O)c3nc(NC)sc3-c3ccc(F)cc3F)cc2F)ccn1` [Compound 21] are < 50% and < 50%.
Take `CNC(=O)c1cc(Oc2ccc(NC(=O)c3nc(NC)sc3-c3ccc(F)cc3C)cc2F)ccn1` [Compound 23]: the inhibition at 5 µM on BRK and at AXL was 50 to 79% in each case.
Turning to `CNC(=O)c1cc(Oc2ccc(NC(=O)c3nc(OC)oc3-c3ccc(F)c(F)c3)cc2F)ccn1` [Compound 24], the inhibition at 5 µM on BRK and on AXL was < 50% each time.
Consider `CNC(=O)c1cc(Oc2ccc(NC(=O)c3nc(OC)oc3-c3ccc(F)s3)cc2F)ccn1` [Compound 25], for which the inhibition at 5 µM on BRK and on AXL was < 50% throughout.
For the compound `CNC(=O)c1cc(Oc2ccc(NC(=O)c3nc(C4CC4)oc3-c3ccc(F)cc3)cc2F)ccn1` [Compound 26], the inhibition at 5 µM on BRK was 90 to 94%; on AXL it was 50 to 79%.
On to `CSc1nc(C(=O)Nc2ccc(Oc3ccnc(C(=O)NC4CNC4)c3)c(F)c2)c(-c2ccc(F)s2)o1` [Compound 27], for which the inhibition at 5 µM on BRK and at AXL was < 50% each time.
For `CSc1nc(C(=O)Nc2ccc(Oc3ccnc(C(=O)NC4COC4)c3)c(F)c2)c(-c2ccc(F)s2)o1` [Compound 28], the inhibition at 5 µM on BRK and at AXL was < 50% throughout.
Take `CSc1nc(C(=O)Nc2ccc(Oc3ccnc(C(=O)NC4CNC4)c3)c(F)c2)c(-c2ccc(F)cc2)o1` [Compound 29]: the inhibition at 5 µM on BRK was ≥ 95%; at AXL, 50 to 79%.
The corresponding values for `CNC(=O)c1cc(Oc2ccc(NC(=O)c3nc(COC)oc3-c3ccc(F)cc3)cc2F)ccn1` [Compound 30] are ≥ 95% and 50 to 79%.
The corresponding values for `CSc1nc(C(=O)Nc2ccc(Oc3ccnc(C(=O)NC4COC4)c3)c(F)c2)c(-c2ccc(F)cc2)o1` [Compound 31] are 80 to 89% and < 50%.
The corresponding values for `CNC(=O)c1cc(Oc2ccc(NC(=O)c3nc(OC4CC4)oc3-c3ccc(F)cc3)cc2F)ccn1` [Compound 32] are ≥ 95% and 80 to 89%.
Consider `[2H]C([2H])([2H])NC(=O)c1cc(Oc2ccc(NC(=O)c3nc(SC)oc3-c3ccc(F)c(F)c3)cc2F)ccn1` [Compound 33], for which the inhibition at 5 µM at BRK was 50 to 79%; on AXL, < 50%.
The matching figures for `CNC(=O)c1cc(Oc2ccc(NC(=O)c3nc(SC(C)C)oc3-c3ccc(F)cc3)cc2F)ccn1` [Compound 34]: 90 to 94% and 50 to 79%.
With `[2H]C([2H])([2H])NC(=O)c1cc(Oc2ccc(NC(=O)c3nc(SC)oc3-c3ccc(F)s3)cc2F)ccn1` [Compound 35], the inhibition at 5 µM at BRK and on AXL was < 50% throughout.
With `CNC(=O)c1ccc(Oc2ccc(NC(=O)c3nc(Cl)oc3-c3ccc(F)cc3)c(F)c2)cn1` [Compound 36], the inhibition at 5 µM at BRK and at AXL was < 50% each time.
In the case of `CSc1nc(C(=O)Nc2ccc(Oc3ccnc(C(=O)NC4COC4)c3)c(F)c2)c(-c2ccc(F)c(F)c2)o1` [Compound 37], the inhibition at 5 µM on BRK and on AXL was < 50% in each case.
`CNC(=O)c1cc(Oc2ccc(NC(=O)c3nc(OCC(F)(F)F)oc3-c3ccc(F)cc3)cc2F)ccn1` [Compound 38]: the inhibition at 5 µM at BRK was 90 to 94%; at AXL, 80 to 89%.
The corresponding values for `COc1nc(C(=O)Nc2ccc(Oc3ccnc(C(=O)NC4COC4)c3)c(F)c2)c(-c2ccc(F)cc2)o1` [Compound 39] are 50 to 79% and < 50%.
The matching figures for `CSc1nc(C(=O)Nc2ccc(Oc3ccnc(C(=O)NCC(F)(F)F)c3)c(F)c2)c(-c2ccc(F)cc2)o1` [Compound 40]: 50 to 79% and < 50%.
The corresponding values for `CSc1nc(C(=O)Nc2ccc(Oc3ccnc(C(=O)NCCN(C)C)c3)c(F)c2)c(-c2ccc(F)cc2)o1` [Compound 41] are ≥ 95% and < 50%.
On to `CSc1nc(C(=O)Nc2ccc(Oc3ccnc(C(=O)NC4CCN(C)CC4)c3)c(F)c2)c(-c2ccc(F)cc2)o1` [Compound 42], for which the inhibition at 5 µM at BRK is ≥ 95%; on AXL, < 50%.
For the compound `COc1nc(C(=O)Nc2ccc(Oc3ccnc(C(=O)NCC(F)(F)F)c3)c(F)c2)c(-c2ccc(F)cc2)o1` [Compound 43], the inhibition at 5 µM at BRK and on AXL was < 50% each time.

The values are drawn from patent US11629143B2, “HipK4 inhibitors and uses thereof” (Vibliome Therapeutics, LLC, priority 2020, dated 2023).
